Reference: patent EP4570805A1, “TRICYCLIC COMPOUNDS AND MEDICAL USE THEREOF” (Chia Tai Tianqing Pharmaceutical Group Co., Ltd., priority 2022, dated 2024)

Columns and labels:
[1] = test system: AsPc-1 cells; assay: Inhibitory activity for AsPc-1 cell proliferation (CCK-8); type: cell-based, human
Protocol: AsPc-1 cells in a well-growing state were collected into a centrifuge tube, adjusted to a cell density of 3 × 10^4 cells/mL, and inoculated onto a 96-well plate (100 µL/well). The compounds were added using a nanoliter pipettor such that the final concentrations of the compounds were 5000 nM-0.31 nM (the addition was performed in duplicate). Meanwhile, a control was set. After 72 h of incubation in the cell incubator, the assay reagent CCK-8 (manufacturer: Dojindo Laboratories; 10 µL/well) was added. After 3 h of incubation in the cell incubator, the absorbance was measured at 450 nm on a PerkinElmer Envision microplate reader. A four-parameter analysis was performed, a dose-response curve was fitted, and IC50 was calculated.

[2] = test system: Capan-1 cells; assay: Inhibitory activity for Capan-1 cell proliferation (CCK-8); type: cell-based; details: 5 days incubation
Protocol: Capan-1 cells in a well-growing state were collected into a centrifuge tube, adjusted to a cell density of 1.5 × 10^4 cells/mL, and inoculated onto a 96-well plate (100 µL/well). […] Meanwhile, a control was set. After 5 days of incubation in the cell incubator, the assay reagent CCK-8 (manufacturer: Dojindo Laboratories, Beijing; 10 µL/well) was added. After 4 h of incubation in the cell incubator, the absorbance was measured at 450 nm on a PerkinElmer Envision microplate reader. A four-parameter analysis was performed, a dose-response curve was fitted, and IC50 was calculated.

[3] = Homo sapiens, ASPC1, 72 h incubation

SMILES | IC50 [1, 3] [nM] | IC50 ([2]; Homo sapiens, CAPAN-1, 120 h) [nM] | IC50 ([1]; 72 h incubation) [nM] | IC50 [2] [nM]
C#Cc1c(F)ccc2cc(O)cc(-c3nc4c5c(nc(OCC6(CN7CCOCC7)CC6)nc5c3F)N(C(C)c3cccnc3N)[C@@H](C)CO4)c12 (single isomer, unassigned) [Example 69] | ≤ 100 | < 100 | – | –
C#Cc1c(F)ccc2cc(O)cc(-c3nc4c5c(nc(OC[C@@]67CCCN6C[C@H](F)C7)nc5c3F)N(C(C)C)C(C)CO4)c12 (stereo partly drawn) [Example 49] | ≤ 100 | – | – | –
C#Cc1c(F)ccc2cc(O)cc(-c3nc4c5c(nc(OC[C@@]67CCCN6C[C@H](F)C7)nc5c3F)N(CC)CCO4)c12 [Example 3] | 100 to 500 | 100 to 500 | – | –
[2H]C([2H])(Oc1nc2c3c(nc(-c4cccc5ccc(F)c(C#C)c45)c(F)c3n1)OC[C@H](C)N2C(C)c1cccnc1N)[C@@]12CCCN1C[C@H](F)C2 (single isomer, unassigned) [Example 114] | – | – | ≤ 100 | < 100
[2H]C([2H])(Oc1nc2c3c(nc(-c4cc(O)cc5ccc(F)c(C#C)c45)c(F)c3n1)OCCN2C(C)c1cccnc1N)[C@@]12CCCN1C[C@H](F)C2 (stereo partly drawn) [Example 51] | ≤ 100 | < 100 | – | –
C#Cc1c(F)ccc2cc(O)cc(-c3nc4c5c(nc(OC[C@@]67CCCN6C/C(=C\F)C7)nc5c3F)N(C(C)c3cccnc3N)[C@@H](C)CO4)c12 (single isomer, unassigned) [Example 176] | ≤ 100 | < 100 | – | –
C#Cc1c(F)ccc2cc(O)cc(-c3nc4c5c(nc(OC[C@@H]6CCCN6C)nc5c3F)N(C(C)c3cccnc3N)[C@@H](C)CO4)c12 (single isomer, unassigned) [Example 67] | ≤ 100 | < 100 | – | –
C#Cc1c(F)ccc2cc(O)cc(-c3nc4c5c(nc(OC[C@@]67CCCN6C[C@H](F)C7)nc5c3F)N(C(C)(C)C)CCO4)c12 [Example 31] | 100 to 500 | 100 to 500 | – | –
[2H]C([2H])(Oc1nc2c3c(nc(-c4cccc5ccc(F)c(C#C)c45)c(F)c3n1)OC[C@H](C)N2C(C)c1cccnc1N)[C@@]12CCCN1C[C@H](F)C2 (single isomer, unassigned) [Example 113] | ≤ 100 | < 100 | – | –
C#Cc1c(F)ccc2cc(O)cc(-c3nc4c5c(nc(OCC67CCCN6CC(F)C7)nc5c3F)N(C(C)c3cccnc3N)CCO4)c12 (single isomer, unassigned) [Example 36] | ≤ 100 | < 100 | – | –
CCc1c(F)ccc2cccc(-c3nc4c5c(nc(OC[C@@]67CCCN6C[C@H](F)C7)nc5c3F)N(C(C)c3cccnc3N)[C@@H](C)CO4)c12 (single isomer, unassigned) [Example 122] | ≤ 100 | < 100 | – | –
C#Cc1c(F)ccc2cc(O)cc(-c3nc4c5c(nc(OC[C@@]67CCCN6C/C(=C\F)C7)nc5c3F)N(C(C)c3cccnc3N)[C@@H](C)CO4)c12 (single isomer, unassigned) [Example 177] | – | – | ≤ 100 | < 100
C#Cc1c(F)ccc2cc(O)cc(-c3nc4c5c(nc(OC[C@@]67CCCN6C[C@H](F)C7)nc5c3F)N(C(C)c3cccnc3N)[C@@H](C)CO4)c12 (stereo partly drawn) [Example 38] | ≤ 100 | < 100 | – | –
C#Cc1c(F)ccc2cc(O)cc(-c3nc4c5c(nc(OCC67CCCN6CC(F)C7)nc5c3F)N(C(C)c3cccnc3N)C(C)CO4)c12 (single isomer, unassigned) [Example 39] | ≤ 100 | < 100 | – | –
C#Cc1c(F)ccc2cc(O)cc(-c3nc4c5c(nc(N6CC(C)(N(C)C)C6)nc5c3F)N(C(C)c3cccnc3N)[C@@H](C)CO4)c12 (single isomer, unassigned) [Example 156] | ≤ 100 | < 100 | – | –
C#Cc1cccc2cccc(-c3nc4c5c(nc(OC[C@@]67CCCN6C[C@H](F)C7)nc5c3F)N(C(C)c3cccnc3N)[C@@H](C)CO4)c12 (single isomer, unassigned) [Example 130] | ≤ 100 | < 100 | – | –
C#Cc1c(F)ccc2cc(N)cc(-c3nc4c5c(nc(OCC67CCCN6CC(F)C7)nc5c3F)N(C(C)c3cccnc3N)C(C)CO4)c12 (single isomer, unassigned) [Example 53] | ≤ 100 | < 100 | – | –
C#Cc1c(F)ccc2cc(O)cc(-c3nc4c5c(nc(OC[C@@H]6C[C@@H](F)CN6C)nc5c3F)N(C(C)c3cccnc3N)[C@@H](C)CO4)c12 (single isomer, unassigned) [Example 146] | ≤ 100 | < 100 | – | –
CC(c1cccnc1N)N1c2nc(OC[C@@]34CCCN3C[C@H](F)C4)nc3c(F)c(-c4cccc5cccc(Cl)c45)nc(c23)OC[C@@H]1C (stereo partly drawn) [Example 115] | ≤ 100 | < 100 | – | –
C#Cc1c(F)ccc2cc(O)cc(-c3nc4c5c(nc(OCC67CCCN6CC(F)C7)nc5c3F)N(CC)C(C)CO4)c12 (single isomer, unassigned) [Example 32] | ≤ 100 | < 100 | – | –

SMILES | IC50 [1, 3] [nM] | IC50 ([2]; Homo sapiens, CAPAN-1, 120 h) [nM] | IC50 ([1]; 72 h incubation) [nM] | IC50 [2] [nM]
C#Cc1c(F)ccc2cc(O)cc(-c3nc4c5c(nc(OC[C@@]67CCCN6C[C@H](F)C7)nc5c3F)N(C(C)c3cccnc3N)CCO4)c12 (stereo partly drawn) [Example 34] | ≤ 100 | < 100 | – | –
C#Cc1c(F)ccc2cc(O)cc(-c3nc4c5c(nc(OCCN6CCCC6)nc5c3F)N(C(C)c3cccnc3N)[C@@H](C)CO4)c12 (single isomer, unassigned) [Example 138] | ≤ 100 | < 100 | – | –
[2H]C([2H])(Oc1nc2c3c(nc(-c4cc(O)cc5ccc(F)c(C#C)c45)c(F)c3n1)OC[C@H](C)N2C(C)c1cccnc1N)[C@@]12CCCN1C[C@H](F)C2 (single isomer, unassigned) [Example 71] | ≤ 100 | < 100 | – | –
C#Cc1c(F)ccc2cc(O)cc(-c3nc4c5c(nc(OCC6(CN(C)C)CC6)nc5c3F)N(C(C)c3cccnc3N)[C@@H](C)CO4)c12 (single isomer, unassigned) [Example 150] | ≤ 100 | < 100 | – | –
CC(c1cccnc1N)N1c2nc(OC[C@@]34CCCN3C[C@H](F)C4)nc3c(F)c(-c4cccc5ccc(F)c(Cl)c45)nc(c23)OC[C@@H]1C (single isomer, unassigned) [Example 124] | ≤ 100 | < 100 | – | –
C#Cc1c(F)ccc2cc(O)cc(-c3nc4c5c(nc(OC[C@@H]6C[C@H](F)CN6C)nc5c3F)N(C(C)c3cccnc3N)[C@@H](C)CO4)c12 (single isomer, unassigned) [Example 105] | ≤ 100 | < 100 | – | –
C#Cc1c(F)ccc2cccc(-c3nc4c5c(nc(OCC67CCCN6CC(F)C7)nc5c3F)N(C(C)c3cccnc3N)C(C)CO4)c12 (single isomer, unassigned) [Example 47] | ≤ 100 | < 100 | – | –
C#Cc1c(F)ccc2cc(O)cc(-c3nc4c5c(nc(OC[C@@H]6CC(F)(F)CN6C)nc5c3F)N(C(C)c3cccnc3N)[C@@H](C)CO4)c12 (single isomer, unassigned) [Example 148] | ≤ 100 | < 100 | – | –
C#Cc1c(F)ccc2cc(O)cc(-c3nc4c5c(nc(OCCCN6CCCCC6)nc5c3F)N(C(C)c3cccnc3N)[C@@H](C)CO4)c12 (single isomer, unassigned) [Example 142] | – | < 100 | – | –
CC(c1cccnc1N)N1c2nc(OC[C@@]34CCCN3C[C@H](F)C4)nc3c(F)c(-c4cc(N)cc(Cl)c4C(F)(F)F)nc(c23)OC[C@@H]1C (single isomer, unassigned) [Example 63] | – | < 100 | – | –
C#Cc1c(F)ccc2cc(O)cc(-c3nc4c5c(nc(OC[C@@]67CCCN6CC(=C)C7)nc5c3F)N(C(C)c3cccnc3N)[C@@H](C)CO4)c12 (single isomer, unassigned) [Example 178] | ≤ 100 | – | – | –
C#Cc1c(F)ccc2cc(O)cc(-c3nc4c5c(nc(OCc6nccn6C)nc5c3F)N(C(C)c3cccnc3N)[C@@H](C)CO4)c12 (single isomer, unassigned) [Example 93] | – | < 100 | – | –
C#Cc1c(F)ccc2cc(O)cc(-c3nc4c5c(nc(OC[C@@H](C)N(C)C)nc5c3F)N(C(C)c3cccnc3N)[C@@H](C)CO4)c12 (single isomer, unassigned) [Example 152] | – | < 100 | – | –
CC(c1cccnc1N)N1c2nc(OC[C@@]34CCCN3C[C@H](F)C4)nc3c(F)c(-c4ccccc4C(F)(F)F)nc(c23)OC[C@@H]1C (single isomer, unassigned) [Example 61] | – | < 100 | – | –
C#Cc1c(F)ccc2cc(O)cc(-c3nc4c5c(nc(OCC(C)(C)OC)nc5c3F)N(C(C)c3cccnc3N)[C@@H](C)CO4)c12 (single isomer, unassigned) [Example 77] | – | < 100 | – | –
C#Cc1c(F)ccc2cc(O)cc(-c3nc4c5c(nc(OCCCN6CCOCC6)nc5c3F)N(C(C)c3cccnc3N)[C@@H](C)CO4)c12 (single isomer, unassigned) [Example 154] | – | < 100 | – | –
C#Cc1c(F)ccc2cc(N)cc(-c3nc4c5c(nc(OCC67CCCN6CCC7)nc5c3F)N(C(C)c3cccnc3N)[C@@H](C)CO4)c12 (single isomer, unassigned) [Example 164] | ≤ 100 | – | – | –
[2H]C([2H])(Oc1nc2c3c(nc(-c4cc(O)cc5ccc(F)c(C#C)c45)c(F)c3n1)OC[C@H](C)N2C(C)c1cccnc1N)[C@@]12CCCN1C[C@H](F)C2 (single isomer, unassigned) [Example 72] | – | – | – | < 100
CC(c1cccnc1N)N1c2nc(OC[C@@]34CCCN3C[C@H](F)C4)nc3c(F)c(-c4cccc5ccccc45)nc(c23)OC[C@@H]1C (single isomer, unassigned) [Example 59] | – | < 100 | – | –
